This is an account of results in patent EP0309424A2, “New amidino derivatives” (ISTITUTO DE ANGELI S.p.A., priority 1987, dated 1989).

The test concerns the target T1, muscarinic receptors of the cerebral cortex (Rattus norvegicus, UniProt P08482).
T1 construct: displacement of ^3H-pirenzepine from cerebral cortex homogenate; from tissue; host or cells: rat cerebral cortex homogenate
T1 sequence (P08482 1-460): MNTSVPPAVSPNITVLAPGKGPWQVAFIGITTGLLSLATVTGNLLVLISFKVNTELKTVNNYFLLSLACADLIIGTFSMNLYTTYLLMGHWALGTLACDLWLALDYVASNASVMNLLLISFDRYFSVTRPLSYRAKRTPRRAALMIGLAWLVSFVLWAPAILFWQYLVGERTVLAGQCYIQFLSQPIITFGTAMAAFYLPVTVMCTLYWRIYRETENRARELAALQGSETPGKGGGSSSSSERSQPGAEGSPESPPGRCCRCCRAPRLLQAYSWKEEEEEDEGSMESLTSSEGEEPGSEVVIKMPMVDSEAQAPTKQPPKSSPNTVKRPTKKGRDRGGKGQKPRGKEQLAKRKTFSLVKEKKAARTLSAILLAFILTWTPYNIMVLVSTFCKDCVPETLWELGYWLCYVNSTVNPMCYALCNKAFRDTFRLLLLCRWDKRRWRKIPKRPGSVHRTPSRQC
In words: Antimuscarinic activity (in vitro binding studies): displacement of 3H-pirenzepine from cerebral cortex homogenate. Also on record: species or system male CD-COOBBS rats. The method, then:
Antimuscarinic activity was examined by studying the displacement of ^3H-pirenzepine from cerebral cortex homogenate according to the procedure reported below: • The cerebral cortex donors were male CD-COOBBS rats, 220-250 g body weight. The homogenization process was carried out in a Potter-Evelhjem apparatus in the presence of Na^+/Mg^++ HEPES buffer; pH 7.4 (100 mM NaCI, 10 mM MgC12, 20 mM HEPES), by filtering the suspension through two layers of cheesecloth. Binding curves for the under study compounds were derived indirectly from competition experiments against 0.5 nM ^3H-pirenzepine labelling the muscarinic receptors of the cerebral cortex. 1 ml of the homogenate was incubated for 45 min at 30° C in the presence of a marker ligand and different concentrations of the cold ligand, conditions under which equilibrium was reached as determined by appropriate association experiments. The incubation was terminated by centrifugation (12,000 rpm for 3 min) at room temperature using an Eppendorf microcentrifuge. The resultant pellet was washed twice with 1.5 ml saline to remove the free radioactivity and it was allowed to drain for some hours. The tips of the tubes containing the pellet were cut off and 200 µl of tissue solubilizer (Lumasolve, Lumac) were added and left to stand overnight. Radioactivity was then counted after addition of 4 ml of liquid scintillation mixture (Dimilume/Toluene 1:10 v:v, Packard)
Non-specific binding avaraged less than 30%. KD values (dissociation constants) were obtained by non-linear regression analysis on the basis of a one binding site model with TOPFIT-pharmacokinetic programme package (G. HEINZEL, "Pharmacokinetics during drug development: data analysis and evaluation techniques" Eds. G. BOLZER and J.M. VAN ROSSUM; p. 207, G. Fisher, New York, 1982) after correction for the radioligand occupancy shift according to the equation: Ko = ICso/1 + *C/*KD, where "C and *KD represent the concentration and the dissociation constant of the radioligand used, respectively.

[1] abbreviates: competition against 0.5 nM 3H-pirenzepine, rat cerebral cortex homogenate, 45 min at 30° C, corrected for radioligand occupancy shift, read-out: Dissociation constants (KD) for 3H-pirenzepine binding.

Structures can show the parent of a compound that is named as a salt. Where two headings read alike, the source gives them in different places.

For the molecule `N=C(N)N1CCC(OC(=O)C(c2ccccc2)c2ccccc2)CC1` [Compound 14, Benzeneacetic acid,a-phenyl-,1-guanyl-4-piperidinyl ester], the Ki under setting [1] came to 15 nM. Consider `N=C(N)N1CCN(CC(O)(c2ccccc2)C2CCCCC2)CC1` (stereo not shown) [Compound 4, N-guanyl-N'-[(2-phenyl-2-cyclohexyl-2-hydroxy)-ethyl]-piperazine], for which the Ki under setting [1] was determined as 17 nM. Same read-out and setting: then `N=CN1CCN(CC(O)(c2ccccc2)C2CCCCC2)CC1` (stereo not shown) [Compound 35, N-iminomethyl-N'-[(2-hydroxy-2-phenyl-2-cydohexyl)-ethyl]-piperazine], with 12 nM. The molecule `CC(=N)N1C2CCC1CC(OC(=O)C(CO)c1ccccc1)C2` (racemic) [Compound 64, N-iminoethyl-noratropine] had a Ki of 3.4 nM.

`CC(=N)N1C2CC(OC(=O)C(CO)c3ccccc3)CC1C1OC12` (single isomer, unassigned; (-)) [Compound 65, (-)-N-iminoethyl-norscopolamine] displayed a Ki of 2 nM. The same measure, in the same setting: then `N=C(N)N1C2CCC1CC(OC(=O)C(CO)c1ccccc1)C2` (racemic) [Compound 1, N-guanyl-Noratropine], with 7 nM. With `N=C(N)N1CCC(CC(O)(c2ccccc2)c2ccccc2)CC1` [Compound 24, 2-[(N-guanyl-piperidin-4-yl)]-1,1-diphenyl-ethanol], under setting [1], the Ki amounted to 38 nM. For the molecule `N=CN1CCC(OC(=O)C(c2ccccc2)c2ccccc2)CC1` [Compound 34, Benzeneacetic acid,α-phenyl,1-(iminomethyl)-4-piperidinyl ester, hydrochloride], under setting [1], the Ki worked out at 4.4 nM. Same read-out and setting: the result for `CN=CN1CCC(=C(c2ccccc2)c2ccccc2)CC1` [Compound 28, Piperidine,4-(diphenylmethylene)-,1-[N-methyl-(iminomethyl)]] reads 32 nM; that for `CC(=N)N1CCN(CC(O)(c2ccccc2)C2CCCCC2)CC1` (stereo not shown) [Compound 62, N-(iminoethyl)-N'-[(2-hydroxy-2-phenyl-2-cyclohexyl)ethyl]-piperazine], 30 nM.
